Values of other authors as cited in article PMC7904743, “WIDOCK: a reactive docking protocol for virtual screening of covalent inhibitors” (Journal of Computer-Aided Molecular Design, 2021).
Read-outs that look alike come from different tables or passages of the source.

Tests used:
[1] = system: NUDT7; settings: protein labeling at 200 μM; experimental actives if % labeling higher than 50%; cited from earlier work
[2] = thiol reactivity, cited from earlier work
[3] = system: OTUB2; settings: experimental actives if % labeling higher than 50%; cited from earlier work
[4] = natural log of average rate constant k
[5] = natural logarithm of average rate constant

Compound | NUDT7 % labeling [1] [%] | ln(avg k) [2, 4] | ln(avg k) [2, 5] | OTUB2 % labeling [3] [%]
O=C(CCl)N1CCN(Cc2ccc(Br)s2)CC1 [PCM-0102169, O=C(CCl)N1CCN(Cc2ccc(Br)s2)CC1] | 0 | -15.949 | -15.949 | 0
O=C(CCl)Nc1ccccc1C(F)(F)F [PCM-0102170, O=C(CCl)Nc1ccccc1C(F)(F)F] | 0 | -16.769 | -16.769 | 0
Cc1ccc(NC(=O)NC(=O)CCl)c(C)c1 [PCM-0102171, Cc1ccc(NC(=O)NC(=O)CCl)c(C)c1] | 20 | -15.812 | -15.812 | 10
CC(=O)Nc1cccc(NC(=O)CCl)c1 [PCM-0102172, CC(=O)Nc1cccc(NC(=O)CCl)c1] | 0 | -15.748 | -15.748 | 0
COc1ccccc1N1CCN(C(=O)CCl)CC1 [PCM-0102173, COc1ccccc1N1CCN(C(=O)CCl)CC1] | 0 | -15.826 | -15.826 | 0
O=C(CCl)NCc1cccc(Cl)c1 [PCM-0102174, O=C(CCl)NCc1cccc(Cl)c1] | 0 | -16.752 | -16.752 | 25
Cc1cc(NC(=O)CCl)ccc1N1CCCC1 [PCM-0102175, Cc1cc(NC(=O)CCl)ccc1N1CCCC1] | 13 | -15.490 | -15.490 | 39
Cc1ccc(NC(=O)CCl)cc1S(N)(=O)=O [PCM-0102177, Cc1ccc(NC(=O)CCl)cc1S(N)(=O)=O] | 10 | -15.256 | -15.256 | 27
CN(C(=O)CCl)C1CCS(=O)(=O)C1 (stereo not drawn) [PCM-0102178, CN(C(=O)CCl)C1CCS(=O)(=O)C1] | 0 | -15.027 | -15.027 | 0
O=C(CCl)Nc1cccc(N2CCCC2=O)c1 [PCM-0102179, O=C(CCl)Nc1cccc(N2CCCC2=O)c1] | 12 | -15.495 | -15.495 | 47
CC(NC(=O)CCl)c1cccs1 (stereo not drawn) [PCM-0102180, CC(NC(=O)CCl)c1cccs1] | 16 | -16.321 | -16.321 | 55
O=C(CCl)Nc1cccc(-c2nnc3n2CCCCC3)c1 [PCM-0102181, O=C(CCl)Nc1cccc(-c2nnc3n2CCCCC3)c1] | 0 | -15.929 | -15.929 | 0
Cc1c(C#N)c(NC(=O)CCl)n(C2CCCC2)c1C [PCM-0102183, Cc1c(C#N)c(NC(=O)CCl)n(C2CCCC2)c1C] | 28 | -15.991 | -15.991 | 0
Cc1cccc(N2CCN(C(=O)CCl)CC2)c1 [PCM-0102185, Cc1cccc(N2CCN(C(=O)CCl)CC2)c1] | 5 | -15.479 | -15.479 | 0
O=C(CCl)Nc1nnc(C2CC2)o1 [PCM-0102187, O=C(CCl)Nc1nnc(C2CC2)o1] | 0 | -17.207 | -17.207 | 0
CC(NC(=O)CCl)c1cccc(Cl)c1 (stereo not drawn) [PCM-0102190, CC(NC(=O)CCl)c1cccc(Cl)c1] | 42 | -16.294 | -16.294 | 37
O=C(CCl)NCc1ccc(F)cc1 [PCM-0102192, O=C(CCl)NCc1ccc(F)cc1] | 0 | -16.677 | -16.677 | 31
O=C(CCl)N1CCN(S(=O)(=O)c2ccc3c(c2)CCC3)CC1 [PCM-0102193, O=C(CCl)N1CCN(S(=O)(=O)c2ccc3c(c2)CCC3)CC1] | 0 | -15.169 | -15.169 | 0
Cc1cc(NC(=O)CCl)on1 [PCM-0102197, Cc1cc(NC(=O)CCl)on1] | 0 | -16.303 | -16.303 | 0
O=C(CCl)Nc1cccc(Cl)c1 [PCM-0102198, O=C(CCl)Nc1cccc(Cl)c1] | 28 | -16.004 | -16.004 | 37
O=C(CCl)N1CCN(S(=O)(=O)c2c(F)cccc2F)CC1 [PCM-0102201, O=C(CCl)N1CCN(S(=O)(=O)c2c(F)cccc2F)CC1] | 0 | -15.250 | -15.250 | 0
